The structures appear in SMILES notation.

The values that follow come from ChEMBL document CHEMBL1150762, “Homology modeling and site-directed mutagenesis to identify selective inhibitors of endothelin-converting enzyme-2” (J Med Chem, 2008).

Chain of Neprilysin (P08473 whole entry): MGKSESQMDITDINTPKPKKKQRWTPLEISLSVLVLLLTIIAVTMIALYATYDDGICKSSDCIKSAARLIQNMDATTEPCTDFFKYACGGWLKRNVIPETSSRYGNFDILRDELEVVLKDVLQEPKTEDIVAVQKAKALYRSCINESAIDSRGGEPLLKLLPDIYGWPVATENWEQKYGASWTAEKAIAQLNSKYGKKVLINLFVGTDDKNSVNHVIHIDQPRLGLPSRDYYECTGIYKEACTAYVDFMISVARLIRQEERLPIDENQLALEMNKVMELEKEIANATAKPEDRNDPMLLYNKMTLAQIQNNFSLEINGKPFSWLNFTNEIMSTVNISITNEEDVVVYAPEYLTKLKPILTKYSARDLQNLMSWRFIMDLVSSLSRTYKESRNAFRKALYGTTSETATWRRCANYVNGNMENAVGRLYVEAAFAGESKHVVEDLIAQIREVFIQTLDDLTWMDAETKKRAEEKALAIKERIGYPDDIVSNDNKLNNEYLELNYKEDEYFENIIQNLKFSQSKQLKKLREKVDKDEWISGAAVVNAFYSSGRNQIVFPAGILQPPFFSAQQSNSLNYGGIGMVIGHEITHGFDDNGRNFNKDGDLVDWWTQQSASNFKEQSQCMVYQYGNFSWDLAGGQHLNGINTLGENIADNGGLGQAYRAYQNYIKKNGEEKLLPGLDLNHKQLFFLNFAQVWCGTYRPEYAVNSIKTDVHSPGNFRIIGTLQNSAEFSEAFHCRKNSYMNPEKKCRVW

The target in the first test is T1, Endothelin-converting enzyme 2 (Homo sapiens) (UniProt P0DPD6).
T1 sequence (whole entry): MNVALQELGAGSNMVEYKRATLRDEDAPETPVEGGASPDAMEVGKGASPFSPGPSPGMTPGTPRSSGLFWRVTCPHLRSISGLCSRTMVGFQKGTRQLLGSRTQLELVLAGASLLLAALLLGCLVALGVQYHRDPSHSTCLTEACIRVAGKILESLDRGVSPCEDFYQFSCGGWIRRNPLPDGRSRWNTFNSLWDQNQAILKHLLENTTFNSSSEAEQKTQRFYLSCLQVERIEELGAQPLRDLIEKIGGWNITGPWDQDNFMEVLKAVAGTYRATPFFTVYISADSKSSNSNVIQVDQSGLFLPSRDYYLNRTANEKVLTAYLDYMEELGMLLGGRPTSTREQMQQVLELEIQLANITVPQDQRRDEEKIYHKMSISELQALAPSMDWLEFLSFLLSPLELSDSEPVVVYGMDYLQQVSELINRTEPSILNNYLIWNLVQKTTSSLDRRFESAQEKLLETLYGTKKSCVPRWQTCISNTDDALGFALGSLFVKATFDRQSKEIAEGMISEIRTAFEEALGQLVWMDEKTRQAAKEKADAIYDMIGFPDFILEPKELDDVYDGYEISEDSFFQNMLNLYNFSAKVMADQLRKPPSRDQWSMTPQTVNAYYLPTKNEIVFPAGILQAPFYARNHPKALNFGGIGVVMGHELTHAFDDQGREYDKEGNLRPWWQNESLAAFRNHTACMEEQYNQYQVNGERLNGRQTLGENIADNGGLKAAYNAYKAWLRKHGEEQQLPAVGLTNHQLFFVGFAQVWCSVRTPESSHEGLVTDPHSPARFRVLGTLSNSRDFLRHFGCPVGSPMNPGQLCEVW
The test can be described thus: Reduction of recombinant ECE2 activity measured by McaBk2 fluorescent substrate hydrolysis at 10 uM. The arrangement: scale not given: the % may be the effect or the level left.
With `O=C(Cc1ccc2nccnc2c1)N1CCCC1`, the Activity is above 70%.
With `Oc1ccccc1/C=C/c1ccc2ccccc2n1`, the Activity was above 70%.

Another test concerns the target Neprilysin (Homo sapiens, UniProt P08473). The test can be described thus: Inhibition of Neprilysin.
For the compound `O=C(Cc1ccc2nccnc2c1)N1CCCC1`, the IC50 was above 50 µM.
The same measure, in the same setting: under `Oc1ccccc1/C=C/c1ccc2ccccc2n1` stands above 100 µM.

Another test addresses T2, Endothelin-converting enzyme 2 (Homo sapiens, UniProt P0DPD6).
T2 sequence (P0DPD6 whole entry): T1 sequence (whole entry)
The test can be described thus: Reduction of recombinant ECE2 activity measured by McaBk2 fluorescent substrate hydrolysis.
Consider `Oc1ccccc1/C=C\c1ccc2ccccc2n1`, for which the concentration for half-maximal inhibition (IC50) came to 4.63 µM.
Consider `COc1cccc(/C=C/c2ccc3cccc(O)c3n2)c1O`, for which the half-inhibitory concentration (IC50) came to 32.9 µM.
Still for that read-out and setting: under `O=C(Cc1ccc2nccnc2c1)N1CCCC1` stands 5.83 µM.
On the same count and under the same terms, under `Oc1ccccc1/C=C/c1ccc2ccccc2n1` stands 6.42 µM.
As to `COc1cccc(/C=C/c2ccc3cccc(O)c3n2)c1`, the IC50 was 35.7 µM.
